# From a melting point compilation (Tetko et al.; mined from patent text by program, amines drawn as free bases though some values may be those of a salt)
row,SMILES,melting point
1,O=C(COc1ccccc1)N[C@@H](Cc1ccc([N+](=O)[O-])cc1)C(=O)O,147 °C
2,CC(C)(NC(=O)C1=C(C(=O)Nc2cc(OC3CCCC3)c(Cl)cc2F)CCCC1)c1cccc(Cl)c1,222 to 226 °C
3,CC1(C)C(C=NOCC2CC2)C1C(=O)O (stereo not drawn),82 to 85 °C
4,CC(C)C(C(=O)O)c1cc(Cl)c(O)c(Cl)c1 (stereo not drawn),152 to 154 °C
5,CCCCCCCCCCCCOC(=O)CC(O)C(=O)OCCCCCCCCCCCC (stereo not drawn),27 to 30 °C
6,O=C(NC(Cc1ccncc1)C(=O)O)OCc1cc2cc(-c3cccnc3)ccc2o1 (stereo not drawn),257 °C
7,CC(C)c1nn(-c2ccc(C(F)(F)F)cn2)cc1CCCOc1nn(C2CCCCC2)cc1CC(=O)O,116 to 117 °C
8,O=Cc1ccc(Cl)cc1C1(c2ccccc2F)OCCO1,103 to 105 °C
9,FC(F)(F)Oc1ccc(-n2cc(CBr)cn2)cc1,50 to 51 °C
10,CC(C)[Si](C(C)C)(C(C)C)C1(CO)c2ccccc2-c2ccccc21,106 to 108 °C
11,O=C(NC(=O)C(Br)CBr)Nc1ccc(Cl)cc1 (stereo not drawn),162 to 163 °C
12,COc1cc(CN(C)c2ncc(C(=O)NO)cn2)cc(C(=O)Nc2ccc(Cl)c(-c3nc4cc(N(C)C)ccc4[nH]3)c2)c1,207 to 208 °C
13,Fc1ccc(-c2nc(-c3ccccc3)sc2-c2ccncc2)cc1,135 to 137 °C
14,O=[N+]([O-])c1ccccc1/C=C/c1ncon1,128 °C
15,CC(C)C(C(=O)Nc1n[nH]c(=S)s1)N(C(=O)OCc1ccccc1)c1ccccc1F (stereo not drawn),148 °C
16,COC(=O)C1CCN(c2ccc(Cl)c(CBr)c2Cl)C1 (stereo not drawn),94 °C
17,Cc1cc(NC(=O)Nc2ccc(N(CCCl)CCCl)cc2)cc(Nc2c3ccccc3nc3ccccc23)c1,280 to 285 °C
18,CC(=O)OC1CSC(Oc2ccc(-c3cncc(Cl)c3)nc2)C(OC(C)=O)C1OC(C)=O (stereo not drawn),203 to 205 °C
19,CSc1nn2c(N(C)C)cc(C)nc2c1S(=O)(=O)c1ccc(C(C)C)cc1,222 to 224 °C
20,C=CC12CCc3cc(NS(=O)(=O)O)ccc3C1CCC1(C)C(O)CCC12 (stereo not drawn),82 to 86 °C
21,C[C@H](NC(=O)OC(C)(C)C)[C@@H]1CCN(c2nc3c(cc2F)c(=O)n(N)c(=O)n3C2CC2)C1,175 to 177 °C
22,O=C(O)CCc1ccc(OCCn2c(=O)sc3cc(Cc4ccccc4)ccc32)cc1,158 to 163 °C
23,O=C(O)CSCCSc1ccc(O)cc1,105 °C

row,SMILES,melting point
1,CNC(=N[N+](=O)[O-])N(Cc1cnc(Cl)s1)C(=O)N1CCOCC1,130 to 131 °C
2,Clc1c2ccccc2nc2c1sc1ccccc12,158 to 159 °C
3,COc1ccc(C(=O)Nc2ccccc2)cc1NCc1ccc(-c2ccccc2)cc1,222 to 223 °C
4,CCCCCCCCCCOC(=O)C1CCC(=O)N1 (stereo not drawn),34 to 35 °C
5,CCOc1cc(Cl)c2cc(F)c(F)c(F)c2n1,45 °C
6,CCCCCCCCc1ccc(C(O)C(=O)c2ccccc2)cc1 (stereo not drawn),85 to 89 °C
7,CC(C)(C)c1cc(C=Cc2cc(C=Cc3cc(C(C)(C)C)cc(C(C)(C)C)c3)cc(CBr)c2)cc(C(C)(C)C)c1,222 to 223 °C
8,O=C1c2ccccc2C(=O)N1CCCCCCSc1ccc2ccccc2c1,109 to 110 °C
9,CCCCc1cc(N)n2nccc2n1,124 to 126 °C
10,COC(=O)CC/C(C)=C/Cc1c(N)c2c(c(C)c1OC)COC2=O,91 to 93 °C
11,O=C(O)c1ccc(C(=O)O)c2c(C(O)=Nc3ccccc3)ccc(C(=O)O)c12,> 300 °C
12,C=CCn1c(C)c(C)c2cnnc(OCc3ccc(C(F)(F)F)cc3)c21,95 to 96 °C
13,Brc1ccc(C#CC#Cc2ccc(Br)cc2)cc1,264 to 265 °C
14,CN(C)C(=O)C(C#N)=Cc1cc(O)c(O)c([N+](=O)[O-])c1,183 to 185 °C
15,CN1C(=O)C(C)(C)N=C(c2ccccc2Cl)c2cc([N+](=O)[O-])cc(Cl)c21,254 °C
16,Nc1cccc(S(=O)(=O)N2CC=CC2)c1,187 to 188 °C
17,COc1cccc2c1cc(C=O)n2Cc1ccccc1,130 to 131 °C
18,CCCCC1(Cn2ccnc2)SCCS1,131 to 135 °C
19,CCNc1cncc(S(=O)(=O)N(CC)CC)c1,58 to 60 °C
20,Cc1ccc(NC(=S)N2CCC(O)C2)c(C)c1 (stereo not drawn),164 to 166 °C
21,CCC#CCOc1cc2c(cc1C=O)C(C)(C)CCC2(C)C,90 to 91 °C
22,COC(=O)c1c(C)sc2cc(CCl)ccc12,78 to 79 °C
23,CC(C)(C)C(NC(=O)c1cccc(Br)c1)Nc1c(Nc2cccnc2)c(=O)c1=O (stereo not drawn),244 to 245 °C

row,SMILES,melting point
1,Cc1cccc(-c2nc(NC(=O)c3ccc(C(=O)O)cc3)sc2-c2ccncn2)c1,380 to 381 °C
2,CS(=O)(=O)c1ccc(-c2nc(-c3cc4ccccc4o3)[nH]c2-c2ccc(F)cc2)cc1,235 to 237 °C
3,CC(C)OCCNS(=O)(=O)NC(=O)OCCCc1ccc(OCc2ccco2)cc1Oc1ncc(C(F)(F)F)cc1Cl,118 to 120 °C
4,COC(=O)CCn1c(=O)[nH][nH]c1=O,150 to 153 °C
5,COc1c(C)c(C)c2c(c1C)C(c1ccc(C=O)cc1)C(C)(C)O2 (stereo not drawn),108 to 109 °C
6,O=C(O)CCC(=O)c1ccc(-c2ccccc2F)cc1,148 to 153 °C
7,COc1cc(I)cc(OC)c1SC,103 to 104 °C
8,O=C(Cl)c1ccc(NC(=O)c2ccccc2-c2ccccc2)cc1,118 to 120 °C
9,O=C1c2ccccc2C(O)(c2ccc(Cl)cc2)N1Cc1ccc(Cl)cc1 (stereo not drawn),156 to 157 °C
10,CCOc1c(CN2CCCCC2)c2c(c3c1OC(C)(C)C3)C(c1cccc(NC(=O)c3ccccc3C(=O)O)c1)=NC(C)(C)C2,155 to 157 °C
11,COc1cccc(C2C(C(=O)c3ccc(C)cc3)=C(O)C(=O)N2c2ccc(C)nn2)c1 (stereo not drawn),265 °C
12,Cc1cccc(C(=O)Nc2c[nH]nc2C(=O)NCCCOC(C)C)n1,169 to 170 °C
13,FC(F)(F)c1ccc2sc(C3=CCN(Cc4ccccc4)CC3)nc2c1,124 to 125 °C
14,CCn1nc(OCC(=O)C(C)(C)C)c(-c2ccc(S(C)(=O)=O)cc2)c1-c1ccc(F)cc1,63 to 66 °C
15,C#CCCCCCCCCC(c1ccc(Cl)cc1)C1(S(=O)(=O)c2ccc(OC)cc2)SC(=O)NC1=O (stereo not drawn),114 to 121 °C
16,CCN(CC)C(=O)n1cc(F)c(=O)[nH]c1=O,157 to 160 °C
17,O=C(OI(OC(=O)C(F)(F)F)C(F)(F)C(F)(F)C(F)(F)C(F)(F)C(F)(F)C(F)(F)F)C(F)(F)F,60 to 62 °C
18,OC(Cc1nnn[nH]1)(Cn1cncn1)c1ccc(Cl)cc1Cl (stereo not drawn),214 to 215 °C
19,CNC(=O)Nc1ccc(Cl)c(Cl)c1,156 °C
20,Cc1ccc(-c2cncn2-c2ccc(S(C)(=O)=O)cc2)cc1,156 °C
21,O=C1C2CCCCC2C(=O)N1CCOC(OCCN1C(=O)C2CCCCC2C1=O)(C(=O)c1ccccc1)c1ccccc1 (stereo not drawn),115 to 116 °C

# Results, then the molecule that gave them:
row,melting point,SMILES
1,212 to 213 °C,OCc1cccc2c1ccn2-c1ccnc(N[C@H]2CC[C@H](O)CC2)n1
2,160 to 163 °C,Cc1nn(-c2ccccn2)c(C)c1S(N)(=O)=O
3,172 °C,COCCOC(=O)C1=C(C)Nc2nc(N3CCOCC3)nc(N3CCOCC3)c2C1c1cccc([N+](=O)[O-])c1 (stereo not drawn)
4,131 to 133 °C,Cc1cc2c(nc1C(O)c1ccc(C(F)(F)F)cc1)CCCCC2 (stereo not drawn)
5,117 °C,CC1CC(NC(=O)c2ccccc2SC#N)CC(C)(C)C1 (stereo not drawn)
6,244 to 245 °C,COc1cc2[nH]c3c(c2cc1OC)CC(=CC1CCN(Cc2ccccc2)CC1)C3=O
7,261 to 263 °C,O=C(O)c1ccc2nc3c(c(=O)n2c1)CCCC3=Cc1ccccc1
8,126 to 129 °C,CN(C)CN(C(=O)c1ccc(Cl)cc1Cl)c1ccc(C(=O)N2Cc3cccn3Cc3ccccc32)cc1
9,> 200 °C,O=c1[nH]c(N2CCC(N3CCCCC3)CC2)cc2ccccc12
10,> 200 °C,N#Cc1c(N2CCc3ccccc3CC2)nc(CC(N)=O)[nH]c1=O
11,104 to 107 °C,CC(C#N)(Sc1nc2ccccc2s1)c1ccc(C(=O)c2cccs2)cc1 (stereo not drawn)
12,121 to 122 °C,CCCNC(=O)c1nc(-c2ccccc2)c(-c2ccc(=O)n(CCC)n2)s1
13,203 to 205 °C,N=C(N)c1ccc2cc(OC(=O)CC3CCCCC3)ccc2c1
14,234 to 238 °C,O=C1CCC2=C(c3ccccc3)c3cc(Cl)ccc3C2N1 (stereo not drawn)
15,96 to 97 °C,O=CC(CC(=O)O)NC(=O)C1CCCN2C(=O)CCC(NC(=O)CCc3ccccc3)C(=O)N12 (stereo not drawn)
16,70 to 71 °C,Cc1ccc2nc(-c3ccccc3Br)ncc2c1

row,melting point,SMILES
1,163 to 164 °C,O=C(O)COc1ccc2c(-c3ccccc3F)csc2c1Cl
2,161 to 163 °C,CCOC(=O)c1c(CN2CCOCC2)nc2ccc(Cl)cc2c1-c1ccccc1
3,226 to 228 °C,CN1CCN(c2ccnc3c(NC(=O)c4ccccc4[N+](=O)[O-])cccc23)C1=O
4,240 to 244 °C,NC(=O)[C@@H]1[C@H](Nc2ccnc3[nH]c(-c4ccc(N5CCOCC5)cc4)nc23)[C@H]2C=C[C@@H]1C2
5,93 to 94 °C,O=C(OCC1CCCCO1)c1ccccc1Nc1ccnc2cc(Cl)ccc12 (stereo not drawn)
6,165 °C,CC(C)n1c(=O)n(C(=O)NCC2CCN(CC3(C(=O)O)CCCC3)CC2)c2ccccc21
7,192 to 194 °C,CCOC(=O)CN1CSCCC(N2C(=O)c3ccccc3C2=O)C1=O (stereo not drawn)
8,171 to 172 °C,Cc1ccc2c(c1)C1=NN(c3ccc(OCCCN4CCCCC4)cc3)C(=O)CC1CC2 (stereo not drawn)
9,202 °C,NS(=O)(=O)c1ccc(/C(=C2\CCOC2=O)c2ccc(F)cc2)cc1
10,179 to 180 °C,Cc1c(C(=O)Nc2ccc(N3CCN(CCO)CC3)c(C#N)c2)cnn1-c1ccc(F)cc1
11,164 to 168 °C,ClC1=NCc2ccccc2SC1
12,157 to 159 °C,CN1CCN(Cc2nnc(-c3ccccc3)cc2-c2cccc([N+](=O)[O-])c2)CC1
13,218 °C,Cc1c2c(nc3ccccc13)CCN(C(N)=S)CC2
14,150 °C,COC(=O)C1CC(C#N)(c2ccc(OC)c3oc(C(C)C)nc23)CCC1=O (stereo not drawn)
15,110 °C,NS(=O)(=O)c1ccccc1OCCCl
